SMILES strings stand for the structures.

The source of these data is patent publication US11123329B1, “Use of angiotensin II type 2 receptor agonist” (Vicore Pharma AB, priority 2020, dated 2021).

One series relates to E-cadherin expression. To be noted: SAEMyoF.
Another series relates to ACE2. To be noted: in particular in inflamed lung tissue; cited from earlier work.
A further series deals with acute lung injury. To be noted: model of acute lung injury; cited from earlier work.
For the next series, the system named is AT2R. Particulars: in particular in inflamed lung tissue; cited from earlier work.
[1] abbreviates: end of treatment, 100 mg b.i.d. oral, 7 days on top of standard of care, n=51.

Source text for E-cadherin expression: The effect of C21 on E-cadherin expression was studied using the human disease model BioMAP® platform (fibrosis panel) with ELISA-based protein biomarker detection in a human small airway epithelial cell plus lung fibroblast (SAEMyoF) assay (a service provided by Eurofins DiscoverX Corporation, Fremont, Calif., USA).

`CCCCOC(=O)NS(=O)(=O)c1sc(CC(C)C)cc1-c1ccc(Cn2ccnc2)cc1` [Compound C21, N-butyloxycarbonyl-3-(4-imidazol-1-ylmethylphenyl)-5-isobutylthiophene-2-sulfonamide]: in the series with SARS-CoV-2 infection (100 mg b.i.d., 7 days), the “level of circulating biomarker of inflammation CRP, versus placebo” value is given as “no significant differences”; the “level of circulating biomarker of inflammation IL-6, versus placebo” value is recorded as “no significant differences”; the “level of circulating biomarker of inflammation TNF, versus placebo” value was “no significant differences”. The tolerability entry in the series on SARS-CoV-2 infection (100 mg b.i.d., 7 days, COVID-19 patients) is given as “well tolerated”. In the series on SARS-CoV-2 infection (100 mg b.i.d., 7 days, n=51), the deaths turned out to be 1, the “number of patients needing mechanical ventilation” value was 1 and the “total number of reported adverse events” value was determined as 64. For the same compound, the “beneficial effect on need of oxygen supply versus placebo” value in the series on SARS-CoV-2 infection (100 mg b.i.d., 7 days, C21 n=51 vs placebo n=56) is listed as “statistically significant at the predefined 10% level”. Also, in the series on SARS-CoV-2 infection (setting [1]), the “number of patients that needed oxygen supply” value is recorded as 14 and the “patients that needed oxygen supply, share of group” value was found to be 27%. Moreover, the “reduction of E-cadherin at lower concentrations” value with E-cadherin expression (0.37, 1.1 and 3.3 μM of C21) is recorded as “did not reduce E-cadherin”. Also, the “effect on E-cadherin levels” value in the series on E-cadherin expression (0.37-10 μM) is recorded as “dose-dependently reduced”. For the same compound, the “expression of ACE2” value in the series with ACE2 is given as “increase the expression”. Moreover, in the series with acute lung injury, the “pulmonary gas exchange or other relevant beneficial clinical effects” value is “not to improve”. Moreover, in the series on AT2R, the “expression of AT2R” value is listed as “increase the expression”.
